Values of other authors as cited in patent publication US12629325B2, “Increased solubilization of Bemotrizinol” (DSM IP ASSETS B.V., priority 2020, dated 2026).
Like-named read-outs stand apart in the source and are kept apart here.

Details: for Solubility in esters: particularly C12-15 alkyl benzoate
[1] = listed as UV-filter of the formula (I)

Solubility in alkanes: very low
Solubility in alkanes [1]: insoluble
Solubility in esters: moderate solubility
Solubility in esters [1]: very soluble
Solubility in water: very low
Solubility in water [1]: insoluble
Compound: CCCCC(CC)COc1ccc(-c2nc(-c3ccc(OC)cc3)nc(-c3ccc(OCC(CC)CCCC)cc3O)n2)c(O)c1 (stereo not drawn) [Bemotrizinol, 2,4-Bis-{[4-(2-ethyl-hexyloxy)-2-hydroxy]-phenyl}-6-(4-methoxyphenyl)-1,3,5-triazine]
